From the supplement of paper PMC11451515

Test system: NOMO1
Experiment: cell viability relative to DMSO control; higher = less cytotoxic
Conditions: 48 h
Outline: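 NOMO1 or SEM cells were plated at 500 cells/well and P12-Ichikawa cells at 1000 cells/well in 1536-well plates (5 μl), after each leukemia line had been adapted for at least four passages in each medium. Pin dosing delivered library compounds in DMSO at 11 threefold concentrations, 47 μM to 0.79 nM. CellTiter-Glo One luminescence was read after 48 h at 37°C. Viability is reported as a per-plate percentage of DMSO wells, with cell-free wells as background.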

[1] = HPLM + 10% dialyzed FBS, 0.000781 µM
[2] = HPLM + 10% dialyzed FBS, 0.00234 µM
[3] = HPLM + 10% dialyzed FBS, 0.00702 µM
[4] = HPLM + 10% dialyzed FBS, 0.0211 µM
[5] = HPLM + 10% dialyzed FBS, 0.0632 µM
[6] = HPLM + 10% dialyzed FBS, 0.19 µM
[7] = HPLM + 10% dialyzed FBS, 0.569 µM
[8] = HPLM + 10% dialyzed FBS, 1.71 µM
[9] = HPLM + 10% dialyzed FBS, 5.12 µM
[10] = HPLM + 10% dialyzed FBS, 15.4 µM
[11] = HPLM + 10% dialyzed FBS, 46.1 µM
[12] = RPMI 5 mM glucose + 10% FBS, 0.000781 µM
[13] = RPMI 5 mM glucose + 10% FBS, 0.00234 µM
[14] = RPMI 5 mM glucose + 10% FBS, 0.00702 µM
[15] = RPMI 5 mM glucose + 10% FBS, 0.0211 µM
[16] = RPMI 5 mM glucose + 10% FBS, 0.0632 µM
[17] = RPMI 5 mM glucose + 10% FBS, 0.19 µM
[18] = RPMI 5 mM glucose + 10% FBS, 0.569 µM
[19] = RPMI 5 mM glucose + 10% FBS, 1.71 µM
[20] = RPMI 5 mM glucose + 10% FBS, 5.12 µM
[21] = RPMI 5 mM glucose + 10% FBS, 15.4 µM
[22] = RPMI 5 mM glucose + 10% FBS, 46.1 µM
[23] = RPMI 5 mM glucose + 10% dialyzed FBS, 0.000781 µM
[24] = RPMI 5 mM glucose + 10% dialyzed FBS, 0.00234 µM
[25] = RPMI 5 mM glucose + 10% dialyzed FBS, 0.00702 µM
[26] = RPMI 5 mM glucose + 10% dialyzed FBS, 0.0211 µM
[27] = RPMI 5 mM glucose + 10% dialyzed FBS, 0.0632 µM
[28] = RPMI 5 mM glucose + 10% dialyzed FBS, 0.19 µM
[29] = RPMI 5 mM glucose + 10% dialyzed FBS, 0.569 µM
[30] = RPMI 5 mM glucose + 10% dialyzed FBS, 1.71 µM
[31] = RPMI 5 mM glucose + 10% dialyzed FBS, 5.12 µM
[32] = RPMI 5 mM glucose + 10% dialyzed FBS, 15.4 µM
[33] = RPMI 5 mM glucose + 10% dialyzed FBS, 46.1 µM

| Structure (SMILES) | cell viability [1] [%] | cell viability [2] [%] | cell viability [3] [%] | cell viability [4] [%] | cell viability [5] [%] | cell viability [6] [%] | cell viability [7] [%] | cell viability [8] [%] | cell viability [9] [%] | cell viability [10] [%] | cell viability [11] [%] | cell viability [12] [%] | cell viability [13] [%] | cell viability [14] [%] | cell viability [15] [%] | cell viability [16] [%] | cell viability [17] [%] | cell viability [18] [%] | cell viability [19] [%] | cell viability [20] [%] | cell viability [21] [%] | cell viability [22] [%] | cell viability [23] [%] | cell viability [24] [%] | cell viability [25] [%] | cell viability [26] [%] | cell viability [27] [%] | cell viability [28] [%] | cell viability [29] [%] | cell viability [30] [%] | cell viability [31] [%] | cell viability [32] [%] | cell viability [33] [%] |
| --- | --- | --- | --- | --- | --- | --- | --- | --- | --- | --- | --- | --- | --- | --- | --- | --- | --- | --- | --- | --- | --- | --- | --- | --- | --- | --- | --- | --- | --- | --- | --- | --- | --- |
| COc1c(N2C[C@@H]3CCCN[C@@H]3C2)c(F)cc2c(=O)c(C(=O)O)cn(C3CC3)c12.Cl.O | 118 | 115 | 103 | 104 | 100 | 87.2 | 82.6 | 101 | 92.4 | 80.5 | 87.5 | 92.2 | 94.1 | 103 | 105 | 113 | 93.8 | 95 | 93.7 | 97.6 | 85.9 | 85.5 | 105 | 98.5 | 108 | 106 | 99.1 | 87.3 | 96 | 98.4 | 87.4 | 86.3 | 85.6 |
| c1coc(CNc2ncnc3nc[nH]c23)c1 | 120 | 126 | 123 | 133 | 129 | 136 | 117 | 118 | 118 | 108 | 97.3 | 125 | 131 | 124 | 113 | 116 | 119 | 140 | 132 | 118 | 119 | 108 | 124 | 122 | 125 | 124 | 128 | 121 | 121 | 112 | 107 | 94.1 | 88.5 |
| NCCOc1cc(C(=O)Nc2cc(OCCN)c3ccccc3n2)nc(C(=O)Nc2cc(OCCN)c3ccccc3n2)c1 | 65.8 | 36.4 | 43.9 | 40.8 | 38.1 | 47.5 | 43.2 | 40.3 | 42.2 | 56.4 | 56.4 | 96 | 60.5 | 42.3 | 27 | 25.8 | 25.2 | 27.9 | 24 | 25.8 | 38.5 | 64.1 | – | – | – | – | – | – | – | – | – | – | – |
| Cc1cc(/C=c2/sc3nc4ccccc4n3c2=O)c(C)n1-c1ccccc1 | 117 | 113 | 128 | 117 | 132 | 120 | 130 | 119 | 128 | 113 | 123 | 111 | 128 | 115 | 127 | 125 | 126 | 105 | 111 | 119 | 109 | 104 | 121 | 127 | 115 | 137 | 126 | 127 | 121 | 127 | 126 | 133 | 121 |
| O=C(O)c1cccc(-c2noc(-c3ccccc3F)n2)c1 | 106 | 111 | 100 | 133 | 112 | 121 | 109 | 107 | 110 | 96.8 | 101 | 86.3 | 90.6 | 106 | 103 | 86.2 | 98 | 99.6 | 94.7 | 94.2 | 91.9 | 89.9 | 93.2 | 101 | 101 | 95.2 | 96.6 | 98.9 | 112 | 95.8 | 103 | 87.8 | 81.3 |
| Cc1nc(-c2ccc(-c3ccc(C(=O)N4CCc5cc6c(cc54)C4(CCN(C)CC4)CO6)cc3)c(C)c2)no1 | 92.2 | 119 | 105 | 124 | 136 | 131 | 128 | 129 | 127 | 127 | 135 | 107 | 120 | 111 | 104 | 116 | 115 | 128 | 104 | 110 | 111 | 112 | 104 | 111 | 116 | 104 | 101 | 131 | 135 | 118 | 122 | 117 | 118 |
| CN(C[C@@H]1COCCO1)[S+]([O-])(=O)NC2=CC3=C(C=C2)\C=C/C4=C(C=C(C=N4)C5=C[N](C)N=C5)C3=O | 89.6 | 107 | 92.5 | 92.1 | 84.5 | 72.2 | 62.2 | 47.1 | 41.1 | 26.2 | 26.6 | 92.2 | 101 | 90.6 | 114 | 93.8 | 91.2 | 86.9 | 57.1 | 49.5 | 35.2 | 33.3 | 84.5 | 104 | 98.4 | 87.4 | 99.2 | 91.9 | 73.7 | 52.1 | 48.9 | 39.8 | 31.6 |
| OC(=O)CNC(=O)\C1=C(/O)C2=CC=CC=C2N(CC3=CC=CC=C3)C1=O | 98.2 | 109 | 92 | 112 | 108 | 97.7 | 105 | 87.3 | 109 | 101 | 93.6 | 83.7 | 89.5 | 100 | 91.7 | 96.3 | 93 | 96.2 | 83.5 | 84.9 | 85.1 | 86.4 | 93 | 94.6 | 87.9 | 101 | 95.7 | 94 | 97.2 | 102 | 94.7 | 93 | 74.3 |
| Cc1nc2ccc(CN(C)c3ccc(C(=O)N[C@@H](CCC(=O)O)C(=O)O)s3)cc2c(=O)[nH]1 | 110 | 120 | 101 | 111 | 99 | 53.3 | 46 | 44.8 | 41.6 | 41.6 | 38.7 | 120 | 113 | 105 | 112 | 100 | 114 | 94.5 | 72.2 | 71.8 | 75.7 | 73.1 | 116 | 109 | 104 | 120 | 108 | 70.9 | 37.6 | 25.6 | 33 | 33.1 | 32.1 |
| C[C@H](NC(=O)[C@@H](O)c1cc(F)cc(F)c1)C(=O)N[C@@H]1C(=O)N(C)c2ccccc2-c2ccccc21 | – | – | – | – | – | – | – | – | – | – | – | 103 | 115 | 106 | 122 | 109 | 114 | 104 | 86.6 | 97.7 | 101 | 97.3 | 119 | 116 | 119 | 113 | 113 | 105 | 101 | 113 | 102 | 97.3 | 84.5 |
| CC[C@H]1OC(=O)[C@H](C)[C@@H](O[C@H]2C[C@@](C)(OC)[C@@H](O)[C@H](C)O2)[C@H](C)[C@@H](O[C@@H]2O[C@H](C)C[C@H](N(C)C)[C@H]2O)[C@](C)(O)C[C@@H](C)/C(=N\OCOCCOC)[C@H](C)[C@@H](O)[C@]1(C)O | 101 | 95.6 | 86 | 89.4 | 92.9 | 89.6 | 78.6 | 75.3 | 80.1 | 68.5 | 85.5 | 85.2 | 92 | 95 | 84.6 | 89.5 | 90.7 | 87.3 | 88.9 | 90.9 | 91.1 | 82 | 85.9 | 79.3 | 83.3 | 74.1 | 76.6 | 69.5 | 72.1 | 82.1 | 80.1 | 79.8 | 79.8 |
| Cc1nnc(C(C)C)n1[C@@H]1C[C@H]2CC[C@@H](C1)N2CC[C@H](NC(=O)C1CCC(F)(F)CC1)c1ccccc1 | 70.8 | 93.7 | 112 | 93.1 | 98.7 | 103 | 107 | 104 | 103 | 84.5 | 25.5 | 83.6 | 82.9 | 95.2 | 91.3 | 84.5 | 99.9 | 92 | 88.5 | 84.3 | 91.3 | 26.3 | 68.3 | 93.2 | 82.6 | 84.8 | 93.2 | 95.5 | 95.1 | 90.3 | 84.4 | 67.1 | 29.9 |
| Clc1ccc(CCC(Cn2ccnc2)Sc2c(Cl)cccc2Cl)cc1 (stereo not drawn) | 87.3 | 85.2 | 98 | 103 | 107 | 90.8 | 98.5 | 87 | 93.9 | 93.6 | 90.4 | 77.8 | 80.1 | 86.7 | 83.4 | 89.2 | 88.2 | 86.9 | 85.5 | 85.5 | 81.7 | 79.8 | 87.5 | 83.4 | 94.1 | 89.5 | 95.2 | 94.7 | 90.1 | 96.2 | 83.8 | 102 | 70.7 |
| CCC[C@H](Nc1nc(-c2ccc(NC(=O)NCC)c(OC)c2)ncc1C)c1cccnc1 | 119 | 109 | 115 | 126 | 47.8 | 41.7 | 44.2 | 48.7 | 45.8 | 48.4 | 39.7 | 114 | 112 | 129 | 115 | 50 | 31.5 | 33.8 | 26.4 | 27.8 | 30.9 | 25.7 | 105 | 120 | 122 | 125 | 34.6 | 35.3 | 39.2 | 31.2 | 23.9 | 31.1 | 28.7 |
| COc1cc2cc(c1Cl)N(C)C(=O)C[C@H](OC(=O)C(C)C)[C@]1(C)O[C@@H]1[C@H](C)[C@@H]1C[C@@](O)(NC(=O)O1)[C@H](OC)/C=C/C=C(\C)C2 | 55.5 | 53.1 | 53.3 | 44.3 | 49 | 41.8 | 42.1 | 41.8 | 34.9 | 35.7 | 13 | 32.8 | 29.5 | 33.7 | 30.8 | 27.3 | 23.5 | 24 | 19 | 22.4 | 26.4 | 9.73 | 37.2 | 40.4 | 36.2 | 32.1 | 22.9 | 22.2 | 25.4 | 22.4 | 25.9 | 27.8 | 11.8 |
